Results as given in ChEMBL document CHEMBL4130453, “Discovery of an Isothiazole-Based Phenylpropanoic Acid GPR120 Agonist as a Development Candidate for Type 2 Diabetes” (ACS Med Chem Lett, 2017).

Assays:
[1] = Metabolic stability in mouse liver microsomes assessed as parent compound remaining measured at 10 mins; format: ADME, microsome; conditions: liver microsomes, read-out: Stability
[2] = Metabolic stability in human liver microsomes assessed as parent compound remaining measured at 10 mins; format: ADME, microsome; conditions: read-out: Stability
[3] = target: Free fatty acid receptor 4 (Homo sapiens, UniProt Q5NUL3); experiment: Agonist activity at human GPR120 short splice variant expressed in HEK293 cells assessed as increase in intracellular calcium flux incubated for 30 mins measured for 300 secs at 1 sec interval by Fluo-4 NW dye based FLIPR assay; format: functional, cell-based
[4] = target: Free fatty acid receptor 1 (Homo sapiens, UniProt O14842); experiment: Agonist activity at human GPR40 by calcium flux assay; format: functional
[5] = target: T1, Free fatty acid receptor 4 (Mus musculus, UniProt Q7TMA4); experiment: Agonist activity at mouse GPR120 by calcium flux assay; format: functional
T1 sequence (Q7TMA4 whole entry): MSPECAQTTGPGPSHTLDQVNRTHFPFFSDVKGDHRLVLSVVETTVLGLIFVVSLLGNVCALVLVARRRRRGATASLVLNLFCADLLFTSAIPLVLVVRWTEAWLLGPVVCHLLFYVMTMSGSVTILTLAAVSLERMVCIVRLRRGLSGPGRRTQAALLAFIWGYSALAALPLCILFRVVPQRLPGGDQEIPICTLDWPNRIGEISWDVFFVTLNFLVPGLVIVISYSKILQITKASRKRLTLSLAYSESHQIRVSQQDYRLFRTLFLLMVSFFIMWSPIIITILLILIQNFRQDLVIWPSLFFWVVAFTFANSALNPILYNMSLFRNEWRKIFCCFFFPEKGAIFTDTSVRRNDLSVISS

[6] = Metabolic stability in rat liver microsomes assessed as parent compound remaining measured at 10 mins; format: ADME, microsome; conditions: liver microsomes, read-out: Stability
Mus musculus = experiment: Antidiabetic activity in diet-induced obese C57BL/6 mouse assessed as reduction in plasma glucose delta AUC level at 1 mg/kg, po administered 30 mins prior to glucose challenge measured 90 mins post glucose challenge by OGTT relative to control; format: functional; set-up: scale not given: the % may be the effect or the level left
[7] = target: T2, Free fatty acid receptor 4 (Homo sapiens, UniProt Q5NUL3); experiment: Agonist activity at PK-tagged human GPR120 long isoform expressed in CHOK1 cells co-expressing EA-tagged beta-arrestin assessed as beta-gal enzyme complex formation after 90 mins by enzyme fragment complementation assay; format: cell-based
T2 sequence (Q5NUL3 whole entry): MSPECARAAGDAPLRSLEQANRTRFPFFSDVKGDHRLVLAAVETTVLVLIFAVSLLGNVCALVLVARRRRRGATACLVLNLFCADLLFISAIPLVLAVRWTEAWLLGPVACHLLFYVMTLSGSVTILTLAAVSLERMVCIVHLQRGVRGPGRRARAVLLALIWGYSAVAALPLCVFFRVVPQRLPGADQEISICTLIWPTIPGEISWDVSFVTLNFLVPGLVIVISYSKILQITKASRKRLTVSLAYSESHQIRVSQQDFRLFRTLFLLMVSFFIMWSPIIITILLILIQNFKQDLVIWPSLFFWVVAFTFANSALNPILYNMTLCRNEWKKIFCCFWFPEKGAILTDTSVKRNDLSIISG

Sequence of Free fatty acid receptor 1 (O14842 whole entry): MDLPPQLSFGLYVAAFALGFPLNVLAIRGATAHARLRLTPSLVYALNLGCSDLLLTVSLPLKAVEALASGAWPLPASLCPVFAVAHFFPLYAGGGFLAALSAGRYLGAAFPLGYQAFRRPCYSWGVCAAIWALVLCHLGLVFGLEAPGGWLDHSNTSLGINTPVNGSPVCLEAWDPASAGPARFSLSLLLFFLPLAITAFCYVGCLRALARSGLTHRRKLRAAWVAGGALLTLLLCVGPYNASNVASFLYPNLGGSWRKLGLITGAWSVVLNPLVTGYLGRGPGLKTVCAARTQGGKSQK

EC50 [3] | SMILES | further results
25 nM | O=C(O)CCc1cc(F)c(OCc2c(-c3ccc(Cl)c(F)c3)nsc2C(F)(F)F)c(F)c1 | remaining at 10 min [1]: 87 to 100%; remaining at 10 min [2]: 87 to 100%; EC50 [4]: 3000 nM; EC50 [5]: 102 nM; remaining at 10 min [6]: 87 to 100%
– | N#C[C@@H]1C[C@@H]2C[C@@H]2N1C(=O)[C@@H](N)C12CC3CC(CC(O)(C3)C1)C2 [SAXAGLIPTIN ANHYDROUS] | Activity (Mus musculus): 87%
680 nM | CCc1ccc(-c2nsc(CC)c2COc2ccc(CCC(=O)O)c(C)c2C)cc1 | –
202 nM | CCc1cc(CCC(=O)O)ccc1OCc1c(-c2ccc(Cl)cc2)nsc1C(F)(F)F | –
920 nM | CCc1ccc(-c2nsc(OC)c2COc2ccc(CCC(=O)O)c(C)c2C)cc1 | –
672 nM | N#Cc1ccc(-c2nsc(C(F)(F)F)c2COc2c(F)cc(CCC(=O)O)cc2F)cc1 | –
75 nM | COc1ccc(-c2nsc(C(F)(F)F)c2COc2c(F)cc(CCC(=O)O)cc2F)cc1 | –
173 nM | O=C(O)CCc1c(F)c(F)c(OCc2c(-c3ccc(Cl)cc3)nsc2C(F)(F)F)c(F)c1F | –
121 nM | Cc1cc(OCc2c(-c3ccc(Cl)cc3)nsc2C(F)(F)F)c(F)cc1CCC(=O)O | –
332 nM | CCc1ccc(-c2nsc(C(F)(F)C(F)(F)F)c2COc2ccc(CCC(=O)O)c(C)c2C)cc1 | –
314 nM | O=C(O)CCc1cc(F)c(OCc2c(-c3ccc(OC(F)(F)F)cc3)nsc2C(F)(F)F)c(F)c1 | EC50 [7]: 99 nM
191 nM | CCc1ccc(-c2sncc2COc2ccc(CCC(=O)O)c(C)c2C)cc1 | –
86 nM | O=C(O)CCc1ccc(OCc2c(-c3ccc(Cl)cc3)nsc2C(F)(F)F)c(F)c1F | –
31 nM | O=C(O)CCc1ccc(OCc2c(-c3ccc(Cl)cc3)nsc2C(F)(F)F)c(Br)c1 | –
